In patent US6624182B1, “Hydroxyphenylvinylthiazoles” (Ciba Specialty Chemicals Corporation, priority 1999, dated 2003):

Assays:
Assay in all cases: Determination of the minimum inhibitory concentration (MIC value) in microtitre plates
S. aureus = type: cell-based; conditions: Staphylococcus aureus; optical density at 620 nm, 48 hours at 37° C., MIC = ≦20% growth; tested at 100; 10 and 1 ppm (approximate values); (2), (3), (4) at 120; 60; 30; 15; 7.5; 3.75 ppm
Summary of the method: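 DMSO-dissolved compounds were tested in 1:2 serial dilutions against bacteria in CASO bouillon, from inocula of 1−5×10^6 KBE/ml diluted 1:100. Growth was read by OD 620 nm after 48 h at 37 °C. MIC was the lowest concentration giving ≦20% growth versus the growth control, tested in duplicate.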

C. albicans = type: cell-based, Candida albicans ATCC 10231; conditions: Candida albicans; optical density at 620 nm, 48 hours at 37° C., MIC = ≦20% growth; tested at 100; 10 and 1 ppm (approximate values); (2), (3), (4) at 120; 60; 30; 15; 7.5; 3.75 ppm
Summary of the method: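 Candida albicans ATCC 10231 grown overnight in CASO broth, adjusted to 1–5×10^6 CFU/ml then diluted 1:100, was exposed to 1:2 serial dilutions of compound (DMSO) for 48 h at 37 °C. Growth was read as OD620; MIC was the concentration giving ≤20% growth versus control, tested in duplicate.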

E. coli = type: cell-based, Escherichia coli NCTC 8196; conditions: Escherichia coli; optical density at 620 nm, 48 hours at 37° C., MIC = ≦20% growth; tested at 100; 10 and 1 ppm (approximate values); (2), (3), (4) at 120; 60; 30; 15; 7.5; 3.75 ppm
Summary of the method: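 E. coli NCTC 8196 grown overnight in CASO bouillon, adjusted to 1−5×10^6 KBE/ml, diluted 1:100 and added to DMSO-dissolved compounds in 1:2 dilution series. Incubated 48 h at 37° C; growth read as OD 620 nm. MIC is the lowest concentration giving ≤20% growth versus growth control; duplicates.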

| MIC (S. aureus) [µg/mL] | MIC (C. albicans) [µg/mL] | MIC (E. coli) [µg/mL] | Compound |
| --- | --- | --- | --- |
| > 100 | 30 | > 100 | Oc1ccc(/C=C/c2nc(-c3ccc(F)cc3)cs2)cc1 [Compound of formula (2)] |
| > 100 | 30 | > 100 | Oc1ccc(/C=C/c2nc(-c3ccccc3)cs2)cc1 [Compound of formula (4)] |
| 60 | > 100 | > 100 | CC(C)(C)c1csc(/C=C/c2ccccc2O)n1 [Compound of formula (3)] |
